Where two headings read alike, the source gives them in different places.

Data on 25 molecules can be found in US20250368628A1, “METHODS AND COMPOUNDS FOR MODULATING INHERITED GENETIC DISEASES” (Design Therapeutics, Inc., priority 2022, published 2025).

Test [1] concerns Myotonic Dystrophy 1 affected patient fibroblasts (Coriel GM04602; 1600 CTG repeats). Briefly: DM1 foci reduction assay (EC50 assay; CAG10-Cy3 FISH, foci per nucleus). In kind it is cell-based. In short, it runs like this:
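Foci per nucleus counted by 20× imaging of 4 areas per well, after overnight FISH with 5 nM CAG10-Cy3 and DAPI staining of fixed, permeabilized cells. DM1 fibroblasts (GM04602, 1600 CTG) were dosed 48 h at 37 °C, 8 points, 3-fold dilutions, 3 μM top concentration.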

The test system of another test is F35T cells. Briefly: Foci reduction in FECD (CAG10-Cy3 FISH, foci per nucleus). In kind it is cell-based. In short, it runs like this:
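Foci per nucleus were counted by imaging after overnight CAG10-Cy3 FISH at 37 °C (30% formamide, 2×SSC) with DAPI counterstain, on PFA-fixed, ethanol-permeabilized F35T cells. The cells, seeded at 5000 per well in supplemented Opti-MEM, had received 8-point compound dilutions for 48 h at 37 °C.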

Where [2] appears, read: Homo sapiens, Fibroblast; DM1 patient fibroblasts, 48 h treatment, foci per nucleus; read-out: DM1 EC50, 48 h.
The mark [3] stands for this setting: F35T cells, 48 h treatment, foci per nucleus; read-out: FECD EC50, 48 h.
Setting [4] is: Homo sapiens, Fibroblast; DM1 patient fibroblasts, foci per nucleus, 48 h treatment; read-out: DM1 EC50, 48 h.
Setting [5] is: F35T cells, foci per nucleus, 48 h treatment; read-out: FECD EC50, 48 h.

Turning to `CCN(CC)CCCC[C@H](NC(C)=O)C(=O)Nc1ccc(OCCOCCOCCOCCOCCNC(=O)CCNC(=O)c2nc(NC(=O)c3cc(NC(=O)CCNC(=O)c4nc(NC(=O)CCCNC(=O)c5cc(NC(=O)c6nc(NC(=O)CCNC(=O)c7cc(NC(=O)c8nccn8C)cn7C)cn6C)cn5C)cn4C)cn3C)cn2C)cc1` [Compound B-146], the EC50 (in test [1] (setting [2]); in the test on F35T cells (setting [3])) was 100 to 500 nM throughout.

Turning to `CCCNC(=O)CCNC(=O)c1nc(NC(=O)c2cc(NC(=O)CCNC(=O)c3nc(NC(=O)CCCNC(=O)c4cc(NC(=O)c5nc(NC(=O)CCNC(=O)c6cc(NC(=O)c7nccn7C)cn6C)cn5C)cn4CCN)cn3C)cn2C)cn1C` [Compound B-265], the EC50 (in test [1] (setting [2]); in the test with F35T cells (setting [3])) was 100 to 500 nM each time.

Consider `Cn1cc(NC(=O)c2nc(NC(=O)CCNC(=O)c3cc(NC(=O)c4nccn4C)cn3C)cn2C)cc1C(=O)NCCCC(=O)Nc1cn(C)c(C(=O)NCCC(=O)Nc2cc(C(=O)Nc3cn(C)c(C(=O)NCCC(=O)NCCOCCOCCOCCOCCOc4ccc(N)cc4)n3)n(C)c2)n1` [Compound B-12], for which the EC50 (in test [1] (setting [2]); in the test on F35T cells (setting [3])) was 100 to 500 nM throughout.

As to `COCCOCCOCCOCCOCCOCCC(=O)NCCCCCCn1cc(NC(=O)c2nc(NC(=O)CCNC(=O)c3cc(NC(=O)c4nccn4C)cn3C)cn2C)cc1C(=O)NCCCC(=O)Nc1cn(C)c(C(=O)NCCC(=O)Nc2cc(C(=O)Nc3cn(C)c(C(=O)NCCCN(C)CCCNC(=O)c4cccc(C(=O)O)c4)n3)n(C)c2)n1` [Compound B-237], the EC50 (commonly the concentration needed to bring the measured effect to its halfway point) lay in the range of 500 to 1000 nM in test [1] (setting [2]) and 100 to 500 nM in the test with F35T cells (setting [3]).

Regarding `C=C(NCCC(=O)Nc1cc(C(=O)Nc2cn(C)c(C(=O)NCCC(=O)NCCC)n2)n(C)c1)c1nc(NC(=O)CCCNC(=O)c2cc(NC(=O)c3nc(NC(=O)CCNC(=O)c4cc(NC(=O)c5nccn5C)cn4C)cn3C)cn2CCCNC(=O)C(C)(C)C)cn1C` [Compound B-400], the EC50 (in test [1] (setting [2]); in the test on F35T cells (setting [3])) was below 100 nM throughout.

On to `CCCCCNC(=O)c1nc(NC(=O)c2cc(NC(=O)CCNC(=O)c3nc(NC(=O)CCCNC(=O)c4cc(NC(=O)c5nc(NC(=O)CCNC(=O)c6cc(NC(=O)c7nccn7C)cn6C)cn5C)cn4CCCCCCNC(=O)CCOCCOCCOCCOCCOCCOC)cn3C)cn2C)cn1C` [Compound B-236], for which the EC50 (in test [1] (setting [2]); in the test on F35T cells (setting [3])) was 100 to 500 nM throughout.

`CCCNC(=O)c1nc(NC(=O)c2cc(NC(=O)CCNC(=O)c3nc(NC(=O)CC4(CNC(=O)c5cc(NC(=O)c6nc(NC(=O)CCNC(=O)c7cc(NC(=O)c8nccn8C)cn7C)cn6C)cn5C)CNC4)cn3C)cn2C)cn1C` [Compound B-439]: the EC50 (in test [1] (setting [4]); in the test with F35T cells (setting [5])) was 100 to 500 nM each time.

Turning to `CN(C)CCCNC(=O)CCNC(=O)c1nc(NC(=O)c2cc(NC(=O)CCNC(=O)c3nc(NC(=O)CCCNC(=O)c4cc(NC(=O)c5nc(NC(=O)CCNC(=O)c6cc(NC(=O)c7nccn7C)cn6C)cn5C)cn4C)cn3C)cn2C)cn1C` [Compound B-33], the EC50 (in test [1] (setting [2]); in the test on F35T cells (setting [3])) was 100 to 500 nM each time.

`CC(=O)NCCCCn1cc(NC(=O)c2nc(NC(=O)CCNC(=O)c3cc(NC(=O)c4nccn4C)cn3C)cn2C)cc1C(=O)NCCCC(=O)Nc1cn(C)c(C(=O)NCCC(=O)Nc2cc(C(=O)Nc3cn(C)c(C(=O)NCCC(=O)N4CCC(C#CC#CC5CCN(C(C)=O)CC5)CC4)n3)n(C)c2)n1` [Compound B-283]: the EC50 is 500 to 1000 nM in test [1] (setting [2]) and below 100 nM in the test on F35T cells (setting [3]).

`COC(=O)c1cccc(C#CCCCN(C)CCCNC(=O)c2nc(NC(=O)c3cc(NC(=O)CCNC(=O)c4nc(NC(=O)CCCNC(=O)c5cc(NC(=O)c6nc(NC(=O)CCNC(=O)c7cc(NC(=O)c8nccn8C)cn7C)cn6C)cn5C)cn4C)cn3C)cn2C)c1` [Compound B-341]: the EC50 (in test [1] (setting [2]); with F35T cells (setting [3])) was below 100 nM in each case.

Regarding `Cn1cc(NC(=O)c2nc(NC(=O)CCNC(=O)c3cc(NC(=O)c4nccn4C)cn3C)cn2C)cc1C(=O)NCCCC(=O)Nc1cn(C)c(C(=O)NCCC(=O)Nc2cc(C(=O)Nc3cn(C)c(C(=O)NCCCCCCCN)n3)n(C)c2)n1` [Compound B-337], the figures for the EC50 (in test [1] (setting [2]); in the test on F35T cells (setting [3])) were 100 to 500 nM and below 100 nM, respectively.

For `COCCOCCOCCOCCN(CCCCCn1cc(NC(=O)c2nc(NC(=O)CCNC(=O)c3cc(NC(=O)c4nccn4C)cn3C)cn2C)cc1C(=O)NCCCC(=O)Nc1cn(C)c(C(=O)NCCC(=O)Nc2cc(C(=O)Nc3cn(C)c(C(=O)NCCC(=O)N4CCC(C#CC#CC5CCN(C(C)=O)CC5)CC4)n3)n(C)c2)n1)CCOCCOCCOCCOC` [Compound B-257], the EC50 (in test [1] (setting [2]); with F35T cells (setting [3])) was 100 to 500 nM throughout.

For `Cn1cc(NC(=O)c2nc(NC(=O)CCNC(=O)c3cc(NC(=O)c4nccn4C)cn3C)cn2C)cc1C(=O)NCCCC(=O)Nc1cn(C)c(C(=O)NCCC(=O)Nc2cc(C(=O)Nc3cn(C)c(C(=O)NCCC(=O)OCC(N)(CO)CO)n3)n(C)c2)n1` [Compound B-73], the EC50 in test [1] (setting [2]) is 500 to 1000 nM; in the test on F35T cells (setting [3]), above 1000 nM.

On to `Cn1cc(NC(=O)c2nc(NC(=O)CCNC(=O)c3cc(NC(=O)c4nccn4C)cn3C)cn2C)cc1C(=O)NCCCC(=O)Nc1cn(C)c(C(=O)NCCC(=O)Nc2cc(C(=O)Nc3cn(C)c(C(=O)NCCC(=O)NCCOCCOCCOCCN4CCC(C#CC#CC5CCN(C(=O)C(C)(C)C)CC5)CC4)n3)n(C)c2)n1` [Compound B-123], for which the figures for the EC50 (in test [1] (setting [2]); with F35T cells (setting [3])) were below 100 nM and 100 to 500 nM, respectively.

As to `Cn1cc(NC(=O)c2nccn2C)cc1C(=O)NCCC(=O)Nc1cn(C)c(C(=O)Nc2cc(C(=O)NCCCC(=O)Nc3cn(C)c(C(=O)NCCC(=O)Nc4cc(C(=O)Nc5cn(C)c(C(=O)NCCC(=O)N6CCC(C#CC#CC7CCNCC7)CC6)n5)n(C)c4)n3)n(CCCOCCN)c2)n1` [Compound B-303], the EC50 in test [1] (setting [2]) is 500 to 1000 nM; with F35T cells (setting [3]), 100 to 500 nM.

Consider `CC(=O)NCCOCCOCCOCCOCCOCCOCCOCCOCCOCCOCCNC(=O)CCNC(=O)c1nc(NC(=O)c2cc(NC(=O)CCNC(=O)c3nc(NC(=O)CCCNC(=O)c4cc(NC(=O)c5nc(NC(=O)CCNC(=O)c6cc(NC(C)c7nccn7C)cn6C)cn5C)cn4C)cn3C)cn2C)cn1C` (centres unmarked) [Compound B-82], for which the EC50 (in test [1] (setting [2]); with F35T cells (setting [3])) was 100 to 500 nM each time.

On to `Cn1cc(NC(=O)c2nc(NC(=O)CCNC(=O)c3cc(NC(=O)c4nccn4C)cn3C)cn2C)cc1C(=O)NCCCC(=O)Nc1cn(C)c(C(=O)NCCC(=O)Nc2cc(C(=O)Nc3cn(C)c(C(=O)NCCC(=O)N4CC=C(C#CC5CCN(C(=O)OC(C)(C)C)CC5)CC4)n3)n(C)c2)n1` [Compound B-347], for which the values for the EC50 (in test [1] (setting [2]); with F35T cells (setting [3])) were below 100 nM and 100 to 500 nM, respectively.

For `COCCOCCOCCOCCOCCOCCC(=O)NCCCCCCn1cc(NC(=O)c2nc(NC(=O)CCNC(=O)c3cc(NC(=O)c4nccn4C)cn3C)cn2C)cc1C(=O)NCCCC(=O)Nc1cn(C)c(C(=O)NCCC(=O)Nc2cc(C(=O)Nc3cn(C)c(C(=O)NCCC(=O)N4CCC(C#CC#CC5CCN(C(=O)OC(C)(C)C)CC5)CC4)n3)n(C)c2)n1` [Compound B-351], the EC50 in test [1] (setting [2]) is above 1000 nM; in the test on F35T cells (setting [3]), below 100 nM.

For `COCCOCCOCCOCCOCCOCCOc1ccccc1C#CCNCCCNC(=O)c1nc(NC(=O)c2cc(NC(=O)CCNC(=O)c3nc(NC(=O)CCCNC(=O)c4cc(NC(=O)c5nc(NC(=O)CCNC(=O)c6cc(NC(=O)c7nccn7C)cn6C)cn5C)cn4C)cn3C)cn2C)cn1C` [Compound B-414], the EC50 in test [1] (setting [4]) was 100 to 500 nM; with F35T cells (setting [5]), below 100 nM.

In the case of `Cn1cc(NC(=O)c2nc(NC(=O)CCNC(=O)c3cc(NC(=O)c4nccn4C)cn3C)cn2C)cc1C(=O)NCCCC(=O)Nc1cn(C)c(C(=O)NCCC(=O)Nc2cc(C(=O)Nc3cn(C)c(C(=O)NCCC(=O)NCCOCCOCCOCCN4CCN(C5CCN(c6ccc([N+](=O)[O-])cc6)CC5)CC4)n3)n(C)c2)n1` [Compound B-25], the figures for the EC50 (in test [1] (setting [2]); with F35T cells (setting [3])) were 500 to 1000 nM and above 1000 nM, respectively.

On to `CC(=O)N1CCN(CC2CCN(C(=O)CCNC(=O)c3nc(NC(=O)c4cc(NC(=O)CCNC(=O)c5nc(NC(=O)CCCNC(=O)c6cc(NC(=O)c7nc(NC(=O)CCNC(=O)c8cc(NC(=O)c9nccn9C)cn8C)cn7C)cn6C)cn5C)cn4C)cn3C)CC2)CC1` [Compound B-128], for which the EC50 in test [1] (setting [2]) is 100 to 500 nM; in the test with F35T cells (setting [3]), below 100 nM.

`CCCNC(=O)c1nc(NC(=O)c2cc(NC(=O)CCNC(=O)c3nc(NC(=O)CCCNC(=O)c4cc(NC(=O)c5nc(NC(=O)CCNC(=O)c6cc(NC(=O)c7nccn7C)cn6C)cn5C)cn4CCCCCCn4cc(COCCOCCOCCOC)nn4)cn3C)cn2C)cn1C` [Compound B-376]: the EC50 in test [1] (setting [2]) was above 1000 nM; in the test with F35T cells (setting [3]), 100 to 500 nM.

As for `CCOC(=O)c1nc(NC(=O)c2cc(NC(=O)CCNC(=O)c3nc(NC(=O)CCCNC(=O)c4cc(NC(=O)c5nc(NC(=O)CCNC(=O)c6cc(NC(=O)c7nccn7C)cn6C)cn5C)cn4CCCCCCn4cc(COCCOCCOCCOC)nn4)cn3C)cn2C)cn1C` [Compound B-374], the EC50 (in test [1] (setting [2]); with F35T cells (setting [3])) was above 1000 nM in each case.

Take `CCCNC(=O)CCNC(=O)c1nc(NC(=O)c2cc(NC(=O)CCNC(=O)c3nc(NC(=O)CCCNC(=O)c4cc(NC(=O)c5nc(NC(=O)CCNC(=O)c6cc(NC(=O)c7nccn7C)cn6C)cn5C)cn4CCCCCCN)cn3C)cn2C)cn1C` [Compound B-59]: the EC50 (in test [1] (setting [2]); with F35T cells (setting [3])) was 100 to 500 nM each time.

Take `CCCCCCn1cc(NC(=O)c2nc(NC(=O)CCNC(=O)c3cc(NC(=O)c4nccn4C)cn3C)cn2C)cc1C(=O)NCCCC(=O)Nc1cn(C)c(C(=O)NCCC(=O)Nc2cc(C(=O)Nc3cn(C)c(C(=O)NCCC(=O)N4CCN(C)CC4)n3)n(C)c2)n1` [Compound B-425]: the EC50 (in test [1] (setting [4]); in the test with F35T cells (setting [5])) was below 100 nM throughout.
